These results are taken from article PMC8811960, “A Novel 2-Carbon-Linked Dimeric Artemisinin With Potent Antileukemic Activity and Favorable Pharmacology” (Frontiers in Oncology, 2022).

One data set relates to HEL. Description: alamarBlue growth inhibition, HEL. Format: cell-based. The note with it: Homo sapiens, 48h, mean of 2 independent assays ± SD. As to the method:
(§1) Cytotoxicity was assessed using alamarBlue assays (Life Technologies, Grand Island, NY) following manufacturer’s guidelines. Cell death was verified by Annexin V/7-aminoactinomycin D (7AAD) staining (BioLegend, San Diego, CA) per manufacturer’s guidelines.
In general terms: Alamar Blue is a resazurin reagent that responds to reducing activity.

For another data set, the system named is TF1. Description: alamarBlue growth inhibition, TF1. Format: cell-based. The note with it: Homo sapiens, TF-1, TF1, 48h, mean of 2 independent assays ± SD. As to the method: as §1
The nature of data set [1]: Stability in mouse plasma (EDTA). Format: in vitro ADME. The note with it: 10 µM, 37°C, 1h. As to the method: The metabolic stability of ART631 was assessed in human and mouse plasma and liver microsomes (LM). For phase I microsomal stability assays, analogs (10 µM in <1% acetonitrile) were incubated in PBS containing liver microsomes, with or without cofactors ([22]). Microsomal controls (without cofactors) were used to determine non-enzymatic degradation. All experiments were incubated at 37°C for 1h and performed in duplicate. Reactions were stopped with acetonitrile and analyzed as described below.
ART631 was extracted from 25 µL plasma or microsomal solutions with 100 µL acetonitrile containing artemisinin (i.e. the natural product) as internal standard. […] Mobile phase A was ammonium acetate (2mM) containing 0.1% formic acid, and mobile phase B was acetonitrile containing 0.1% formic acid. The gradient started with mobile phase B and was held at 40% for 0.5 minutes with a flow rate of 0.4 mL/min, then increased to 100% over 1.5 minutes and held for 2.0 minutes, and finally returned back to 40% mobile phase B and allowed to equilibrate for 2.0 minutes. An AB Sciex 5500 triple quadrupole mass spectrometer operated in positive electrospray ionization mode was used for the detection of ART631. For stability studies, the ratio of ART631 to the internal standard, artemisinin, was assessed. […]

The subject of another data set is MV4;11. In words: alamarBlue growth inhibition, MV4;11. The note with it: Homo sapiens, MV4;11, 48h, mean of 2 independent assays ± SD. Format: cell-based. As to the method: as §1
Another data set concerns MOLM14 cells. Description: Total cellular ROS (CM-H2DCFDA flow cytometry). Format: cell-based, human. The note with it: MOLM14, 200 nM, 18h. As to the method:
[…] Cells were then treated with ART631 (200 nM) or DMSO control for 18h, with subsequent analysis by flow cytometry. Western blotting and quantitative reverse transcription PCR (qRT-PCR) to assess for molecular markers of ROS-mediated apoptosis were performed as previously described ([20]).
Figure 4 ART631 elevated ROS and CHOP levels and reduced MCL1 expression in MOLM14 AML cells. […] They were then analyzed by flow cytometry. Graph represents %CM-H2DCFDA fluorescence compared to vehicle (DMSO) control treated cells. Error bars represent SD from 3 independent experiments. (B) MOLM14 AML cells were treated for 18h with vehicle, AS (10 uM), ART838 (200 nM), ART631 (200 nM), cytarabine (AraC; 150 nM), or SOR (5 uM). Protein was isolated and western blotted for MCL1, BCL2, CHOP, and β-actin. (C) MOLM14 cells were treated as in (B) for 18h, total RNA isolated, cDNA synthesized, and SYBR Green qRT-PCR performed in triplicates. Ct values were normalized to housekeeping gene GAPDH and fold change shown relative to vehicle (DMSO) control. Error bars represent SD from 3 independent experiments done in triplicate.
In general terms: A flow cytometer gives signals particle by particle.

Data set [2] has as its system C/EBP homologous protein (CHOP). Description: Western blot for CHOP. The note with it: MOLM14, 200 nM, 18h, similar results in MV4;11 and ML2. Format: cell-based, human. As to the method: (§2) Cells were pre-treated with […] ROS detection reagent 5-(and 6-)-chloromethyl-2’,7’-dichlorodihydrofluorescein diacetate (CM-H2DCFDA, Life Technologies) for 30 min, followed by the iron chelator deferoxamine mesylate (DFO; 11 mM) for 60 min. Cells were then treated with ART631 (200 nM) or DMSO control for 18h, with subsequent analysis by flow cytometry. Western blotting and quantitative reverse transcription PCR (qRT-PCR) to assess for molecular markers of ROS-mediated apoptosis were performed as previously described ([20]).
(§3) Figure 4 ART631 elevated ROS and CHOP levels and reduced MCL1 expression in MOLM14 AML cells. (A) MOLM14 AML cells were pre-treated with ROS detection reagent CM-H2DCFDA ([…]) for 30 min, pre-treated with deferoxamine mesylate (DFO; 11 mM) for 60 min, and then treated with ART631 (200 nM) or DMSO control for 18h. They were then analyzed by flow cytometry. Graph represents %CM-H2DCFDA fluorescence compared to vehicle (DMSO) control treated cells. Error bars represent SD from 3 independent experiments. (B) MOLM14 AML cells were treated for 18h with vehicle, AS (10 uM), ART838 (200 nM), ART631 (200 nM), cytarabine (AraC; 150 nM), or SOR (5 uM). Protein was isolated and western blotted for MCL1, BCL2, CHOP, and β-actin. (C) MOLM14 cells were treated as in (B) for 18h, total RNA isolated, cDNA synthesized, and SYBR Green qRT-PCR performed in triplicates. […]
(In general: In western blotting, separated proteins are transferred to a membrane and probed.)

Another data set has as its system MCL1. Description: Western blot for MCL1. The note with it: MOLM14, 200 nM, 18h, similar results in MV4;11 and ML2. Format: cell-based, human. As to the method: as §2, §3
The next data set deals with K562. In words: alamarBlue growth inhibition, K562. The note with it: Homo sapiens, K562, 48h, mean of 2 independent assays ± SD. Format: cell-based. As to the method:
as §1

In another data set the test system is DDIT3. Description: qRT-PCR for DDIT3 mRNA. The note with it: MOLM14, 18h, ART631 200 nM, ART838 200 nM, AS 10 uM, similar results in MV4;11 and ML2. Format: cell-based, human. As to the method: as §2
Figure 4 ART631 elevated ROS and CHOP levels and reduced MCL1 expression in MOLM14 AML cells. (A) MOLM14 AML cells were pre-treated with ROS detection reagent CM-H2DCFDA ([…]) for 30 min, pre-treated with deferoxamine mesylate (DFO; 11 mM) for 60 min, and then treated with ART631 (200 nM) or DMSO control for 18h. They were then analyzed by flow cytometry. Graph represents %CM-H2DCFDA fluorescence compared to vehicle (DMSO) control treated cells. Error bars represent SD from 3 independent experiments. (B) MOLM14 AML cells were treated for 18h with vehicle, AS (10 uM), ART838 (200 nM), ART631 (200 nM), cytarabine (AraC; 150 nM), or SOR (5 uM). Protein was isolated and western blotted for MCL1, BCL2, CHOP, and β-actin. (C) MOLM14 cells were treated as in (B) for 18h, total RNA isolated, cDNA synthesized, and SYBR Green qRT-PCR performed in triplicates. Ct values were normalized to housekeeping gene GAPDH and fold change shown relative to vehicle (DMSO) control. Error bars represent SD from 3 independent experiments done in triplicate.

The subject of data set [3] is MOLM14, MV4;11, and HL60 human AML cells. Set-up: method as in PMID 33560385. The note with it: ART631 200 nM, VEN 50 nM, SOR 5 µM; MOLM14, MV4;11, HL60; cited from earlier work.

Some results are limits rather than exact numbers.

As to `C=CCO/N=C(/C[C@H]1O[C@@H]2O[C@@]3(C)CC[C@H]4[C@H](C)CC[C@@H]([C@H]1C)[C@@]24OO3)[C@H]1O[C@@H]2O[C@@]3(C)CC[C@H]4[C@H](C)CC[C@@H]([C@H]1C)[C@@]24OO3` [ART631], the 50% inhibitory concentration (IC50) (usually the concentration that inhibits the measured activity by half) with HEL is 45 ± 5 nM; in the data set on TF1, 27 ± 2 nM; with MV4;11 it was 27 ± 2 nM; with K562, above 1000 nM. The “percentage remaining, Plasma (EDTA) Mouse” value in [1] came to 62%. Moreover, the “total cellular ROS levels” value in the data set on MOLM14 cells is “substantially increased”. In addition, the “level of CHOP protein” value in data set [2] is “increase”. Besides, the MCL1 protein expression entry in the data set with MCL1 is on record as “decreased”. Besides, in the data set with DDIT3, the “DDIT3 mRNA” value was “increased”. Besides, the “cell death as single agents” value in data set [3] is “less than 15%”.
